The source of these data is PubChem BioAssay (NCI).

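48-hour exposure; five concentrations; linearly interpolated endpoints. The concentration for 50% growth inhibition is given as GI50. The concentration for full growth arrest is given as TGI.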

Among the test systems are RPMI-8226 leukemia; SK-MEL-2 melanoma; T-47D breast; NCI-H522 lung; OVCAR-5 ovarian; SF-295 CNS; OVCAR-3 ovarian; SK-MEL-28 melanoma; SR leukemia; BT-549 breast.
Assay in all cases: NCI tumour cell line growth inhibition, 48 h

`C=C1C(=O)O[C@@H]2/C=C(C)/C=C\[C@@H]3O[C@@]3(C)C[C@@H](O)C12` (stereo partly drawn): the TGI with RPMI-8226 leukemia was 18.7 µM; in the assay on SK-MEL-2 melanoma, > 100 µM; in the assay on T-47D breast, 23.6 µM; in the assay on NCI-H522 lung, 19.6 µM; in the assay with OVCAR-5 ovarian, 85.4 µM; with SF-295 CNS, > 100 µM. In addition, the TGI in the assay on OVCAR-3 ovarian was found to be 29.8 µM; in the assay on SK-MEL-28 melanoma, 35.8 µM.

For the compound `O=[N+]([O-])c1ccc2nc(Nc3ccccc3)c(Nc3ccccc3)nc2c1`, the TGI with RPMI-8226 leukemia is > 100 µM; in the assay with SK-MEL-2 melanoma, 4.49 µM; in the assay on SR leukemia, > 100 µM; with T-47D breast, 8.63 µM; with NCI-H522 lung it was 1.33 µM; in the assay with OVCAR-5 ovarian, 6.93 µM. Also, the TGI in the assay with SF-295 CNS was found to be 2.4 µM; in the assay on SK-MEL-28 melanoma it was 8.4 µM.

For `O=C(CC1Sc2ccccc2NC1=O)Nc1ccccc1[N+](=O)[O-]` (stereo not drawn), the TGI with RPMI-8226 leukemia is > 100 µM; with SK-MEL-2 melanoma, > 100 µM; in the assay with SR leukemia, > 100 µM; in the assay on NCI-H522 lung it was 32.8 µM; in the assay on OVCAR-5 ovarian it was > 100 µM; in the assay on SF-295 CNS it was > 100 µM. The TGI in the assay with OVCAR-3 ovarian and in the assay with SK-MEL-28 melanoma was > 100 µM throughout.

For the compound `O=C1c2cc3c(cc2CC12Cc1ccc4c(c1C2=O)CCC4)CCCC3` (stereo not drawn), the TGI with RPMI-8226 leukemia, in the assay with SK-MEL-2 melanoma, in the assay on SR leukemia, with T-47D breast, in the assay on NCI-H522 lung and in the assay with OVCAR-5 ovarian was > 100 µM each time. For the same compound, the TGI in the assay with SF-295 CNS, in the assay on OVCAR-3 ovarian and in the assay on SK-MEL-28 melanoma was > 100 µM in each case.

Take `COc1cc(OCCN(C)C)c2[nH]c(C(=O)N3CC(CCl)c4ccc(N)cc43)cc2c1` (stereo not drawn): the TGI is 0.271 µM with RPMI-8226 leukemia; 0.0933 µM in the assay with SK-MEL-2 melanoma; > 100 µM with SR leukemia; 5.63 µM in the assay with OVCAR-5 ovarian; 0.607 µM in the assay on OVCAR-3 ovarian.

As to `CON(C)C(=O)C(C)N(Cc1ccccc1)Cc1ccccc1` (stereo not drawn), the TGI with RPMI-8226 leukemia, in the assay with BT-549 breast, in the assay with SR leukemia, with OVCAR-5 ovarian, in the assay with SF-295 CNS and in the assay with OVCAR-3 ovarian was > 100 µM throughout. Moreover, in the assay on SK-MEL-28 melanoma, the TGI is > 100 µM.

As to `N#Cc1nc(-c2cnccn2)oc1N`, the TGI in the assay on RPMI-8226 leukemia, in the assay with SK-MEL-2 melanoma, in the assay with SR leukemia, in the assay on OVCAR-5 ovarian and in the assay with SK-MEL-28 melanoma was > 100 µM throughout.

Turning to `O=c1cc(-c2ccc3c(c2)OCO3)[nH]c2cc3c(cc12)OCO3`, the TGI in the assay on RPMI-8226 leukemia is > 100 µM; in the assay on SK-MEL-2 melanoma, > 100 µM; with SR leukemia it was 52.1 µM; in the assay on NCI-H522 lung it was > 100 µM; in the assay on SF-295 CNS it was 87.8 µM; with OVCAR-3 ovarian it was 43.2 µM. The TGI in the assay with SK-MEL-28 melanoma was > 100 µM. Besides, the GI50 was 29.6 µM with SF-295 CNS and 19.5 µM with OVCAR-3 ovarian.

As to `O=C(Nc1c(O)[nH]c(=S)[nH]c1=O)c1ccccc1`, the TGI in the assay with RPMI-8226 leukemia, in the assay with SK-MEL-2 melanoma, with SR leukemia, in the assay on NCI-H522 lung, in the assay on OVCAR-5 ovarian and in the assay with SF-295 CNS was > 100 µM each time. The TGI with OVCAR-3 ovarian and in the assay with SK-MEL-28 melanoma was > 100 µM throughout.

With `CCOC(=O)C12OC(OCC)(CC1(OCC)OCC)C1(CC1)C2=O` (stereo not drawn), the TGI in the assay on SK-MEL-2 melanoma, in the assay on BT-549 breast, in the assay with OVCAR-5 ovarian, in the assay on SF-295 CNS, in the assay with OVCAR-3 ovarian and in the assay on SK-MEL-28 melanoma was > 100 µM throughout.

On to `CCOC(=O)c1csc(NC(=O)CN2CCCC2)n1`, for which the TGI with RPMI-8226 leukemia, in the assay on SK-MEL-2 melanoma, with SR leukemia, in the assay with T-47D breast, in the assay on OVCAR-5 ovarian and in the assay with SF-295 CNS was > 100 µM each time. The TGI in the assay on OVCAR-3 ovarian and in the assay with SK-MEL-28 melanoma was > 100 µM each time.

Regarding `COC(=O)c1cccc(C)c1C1CN=NC12Cc1cc(C)cc(C)c1C2=O` (stereo not drawn), the TGI in the assay on RPMI-8226 leukemia was > 100 µM; in the assay on SR leukemia, > 100 µM; in the assay on T-47D breast, 53.7 µM; in the assay with NCI-H522 lung, > 100 µM; in the assay on OVCAR-5 ovarian it was > 100 µM; in the assay on OVCAR-3 ovarian, > 100 µM. In the assay on SK-MEL-28 melanoma, the TGI was > 100 µM.

As to `COc1ccccc1CC(=O)C(O)(C(F)(F)F)C(F)(F)F`, the TGI with RPMI-8226 leukemia, in the assay with SK-MEL-2 melanoma, with SR leukemia, in the assay with T-47D breast, with NCI-H522 lung and in the assay with OVCAR-5 ovarian was > 100 µM throughout. The TGI with SF-295 CNS, in the assay with OVCAR-3 ovarian and in the assay with SK-MEL-28 melanoma was > 100 µM throughout.

As to `COc1cc(C2C(Cl)C(=O)N2n2cnc3ccccc3c2=O)ccc1O` (stereo not drawn), the TGI in the assay with RPMI-8226 leukemia, with SK-MEL-2 melanoma, in the assay with SR leukemia, with NCI-H522 lung, in the assay with OVCAR-5 ovarian and with SF-295 CNS was > 100 µM each time. In addition, the TGI in the assay with OVCAR-3 ovarian and with SK-MEL-28 melanoma was > 100 µM in each case.

In the case of `COc1cc(/C=C2\CN(S(=O)(=O)c3ccc(C)cc3)C/C(=C\c3cc(CN4CCCC4)c(O)c(OC)c3)C2=O)cc(CN2CCCC2)c1O`, the GI50 in the assay on RPMI-8226 leukemia is 1.14 µM; with SK-MEL-2 melanoma, 1.87 µM; with SR leukemia it was 0.412 µM; in the assay on T-47D breast it was 1.42 µM; with NCI-H522 lung, 0.433 µM; in the assay with OVCAR-5 ovarian it was 2.27 µM. The GI50 in the assay with SF-295 CNS is 2.23 µM; in the assay with OVCAR-3 ovarian it was 1.07 µM; with SK-MEL-28 melanoma, 1.92 µM. The TGI in the assay with RPMI-8226 leukemia was found to be 3.17 µM; in the assay on SK-MEL-2 melanoma it was 4.05 µM; in the assay on SR leukemia, 3.45 µM; in the assay on T-47D breast it was 3.79 µM; in the assay with NCI-H522 lung, 2.3 µM; with OVCAR-5 ovarian it was 3.84 µM. Also, the TGI with SF-295 CNS came to 5.07 µM; in the assay with OVCAR-3 ovarian it was 2.35 µM; in the assay with SK-MEL-28 melanoma it was 3.51 µM.
